Experimental data: patent publication US20090099253A1, “Internally Masked Neopentyl Sulfonyl Ester Cyclization Release Prodrugs of Acamprosate, Compositions Thereof, and Methods of Use” (XenoPort, Inc., priority 2007, published 2009)

Assays:
[1] = rat, in vivo
Description: Acamprosate or acamprosate prodrug was administered by oral gavage to groups of four to six adult male Sprague-Dawley rats (about 250 g). Animals were conscious at the time of the experiment. Acamprosate or acamprosate prodrug was orally (po) or colonically (ic) administered in 3.4% Phosal or 5% Phosal (53 MCT in 7.5% Tween 80 in 50 mM sodium phosphate buffer, pH 6.8) at a dose of 70 mg-equivalents acamprosate per kg body weight.
The percent relative bioavailability (F %) of acamprosate was determined by comparing the area under the acamprosate concentration vs time curve (AUC) following oral or colonic administration of an acamprosate prodrug or acamprosate with the AUC of the acamprosate concentration vs time curve following intravenous administration of acamprosate on a dose normalized basis.

[2] = system: patients with alcohol dependence; details: patients with alcohol dependence abstinent at initiation of treatment; cited from earlier work
[3] = system: patients being treated for alcohol withdrawal; details: cited from earlier work
[4] = system: individual patients; details: doses from about 1,000 mg/day to about 2,000 mg/day; cited from earlier work
[5] = system: cocaine conditioned mice; details: 100 mg/kg for 3 days; cited from earlier work
[6] = cited from earlier work

CC(=O)NCCCS(=O)(=O)OCC1(C)CCC(=O)O1 (racemic) [Compound 6, rac-(2-Methyl-5-oxo-2-2,3,4-trihydrofuryl)methyl [3-(acetylamino)propyl]sulfonate]
melting point: 63.1 to 64.8 °C

CC(=O)NCCCS(=O)(=O)OCC(C)(C)[C@@H]1COC(=O)O1 [Compound 12, 2-((4R)-2-Oxo(1,3-dioxolan-4-yl))-2-methylpropyl[3-(acetylamino)propyl]sulfonate]
acamprosate colonic bioavailability relative to the acamprosate colonic bioavailability of an equivalent dose of acamprosate itself [1]: at least 5 times

CC(=O)NCCCS(=O)(=O)O [acamprosate, 3-(Acetylamino)propylsulfonic acid]
maintaining abstinence from alcohol [2]: effective for maintaining abstinence from alcohol | effect on sleep [3]: improve sleep | treatment of tardive dyskinesia, dystonia, and tic [4]: effective in treating tardive dyskinesia, dystonia, and tic | effect on relapse-like behavior [5]: attenuated relapse-like behavior | steady-state plasma concentration ([6]; doses of about 1-2 gm per day): 370 to 640 ng/mL | time post-dose at which steady-state plasma concentration occurs ([6]; doses of about 1-2 gm per day): 3 to 8 h | oral bioavailability ([6]; humans, oral): about 11%
